Measured values: patent publication US7582645B2, “Pyrimidine derivatives for treatment of hyperproliferative disorders” (Bayer Pharmaceuticals Corporation, priority 2003, dated 2009)
Structures can show the parent of a compound that is named as a salt.

Tested on: HCT116 cells
Assay: HCT116 cytotoxic activity assay (Alamar Blue, 72 h)
Assay type: cell-based
Details: Homo sapiens, HCT-116, 72 h compound exposure, greater than 500 nM but less than or equal to 2 μM
Method: Representative compounds of this invention were tested for cytotoxicity using the above-described assay procedure with the following results: […]

Question: How did the IC50 turn out when `Nc1nc(Nc2cccc(Oc3ccnc(N4CCC[C@H]4CO)c3)c2)cc(-c2ccccc2)n1` [Example 128, [(2S)-1-(4-{3-[(2-amino-6-phenylpyrimidin-4-yl)amino]phenoxy}pyridin-2-yl)pyrrolidin-2-yl]methanol] was run?
Answer: 500 to 2000 nM

Question: For `CN1CCN(c2cc(Oc3cccc(Nc4cc(-c5ccccc5)nc(N)n4)c3)ccn2)CC1` [Example 130, N4*-(3-{[2-(4-methylpiperazin-1-yl)pyridin-4-yl]oxy}phenyl)-6-phenylpyrimidine-2,4-diamine], which IC50 is on record?
Answer: 500 to 2000 nM

Question: `Nc1nc(Nc2ccc(Oc3ccnc(N(N)Cc4ccccc4)c3)cc2)cc(-c2ccccc2)n1` [Example 131, N4*-(4-{[2-(1-benzylhydrazino)pyridin-4-yl]oxy}phenyl)-6-phenylpyrimidine-2,4-diamine] was tested. Which IC50 did it give?
Answer: 500 to 2000 nM

Question: With `CN1CCN(c2cc(Oc3ccc(Nc4cc(-c5ccccc5)nc(N)n4)cc3)ccn2)CC1` [Example 135, N4*-(4-{[2-(4-methylpiperazin-1-yl)pyridin-4-yl]oxy}phenyl)-6-phenylpyrimidine-2,4-diamine] as the molecule, how does the IC50 read?
Answer: 500 to 2000 nM

Question: With `COCCN1CCN(c2cc(Oc3ccc(Nc4cc(-c5ccccc5)nc(N)n4)cc3)ccn2)CC1` [Example 136, N4*-[4-({2-[4-(2-methoxyethyl)piperazin-1-yl]pyridin-4-yl}oxy)phenyl]-6-phenylpyrimidine-2,4-diamine] as the molecule, how does the IC50 read?
Answer: 500 to 2000 nM

Question: Which IC50 does the source give for `CN(C)CCNc1cc(Oc2ccc(Nc3cc(-c4ccccc4)nc(N)n3)cc2)ccn1` [Example 138, N4*-{4-[(2-{[2-(dimethylamino)ethyl]amino}pyridin-4-yl)oxy]phenyl}-6-phenylpyrimidine-2,4-diamine] here?
Answer: 500 to 2000 nM

Question: `CCN(CC)CCCNc1cc(Oc2ccc(Nc3cc(-c4ccccc4)nc(N)n3)cc2)ccn1` [Example 141, N4*-{4-[(2-{[3-(diethylamino)propyl]amino}pyridin-4-yl)oxy]phenyl}-6-phenylpyrimidine-2,4-diamine] was tested. Which IC50 did it give?
Answer: 500 to 2000 nM

Question: With `CN(C)[C@H]1CCN(c2cc(Oc3ccc(Nc4cc(-c5ccccc5)nc(N)n4)cc3)ccn2)C1` [Example 144, N4*-[4-({2-[(3S)-3-(dimethylamino)pyrrolidin-1-yl]pyridin-4-yl}oxy)phenyl]-6-phenylpyrimidine-2,4-diamine] as the molecule, how does the IC50 read?
Answer: 500 to 2000 nM

Question: Which IC50 does the source give for `Nc1nc(Nc2ccc(Oc3ccnc(C(F)(F)F)c3)cc2)cc(-c2ccc(NC(=O)CCC(=O)O)cc2)n1` [Example 148, 4-[(4-{2-amino-6-[(4-{[2-(trifluoromethyl)pyridin-4-yl]oxy}phenyl)amino]pyrimidin-4-yl}phenyl)amino]-4-oxobutanoic acid] here?
Answer: 500 to 2000 nM

Same assay, conditions: Homo sapiens, HCT-116, 72 h compound exposure, greater than 2 μM

Question: `COC[C@@H]1CCCN1c1cc(Oc2cccc(Nc3cc(-c4ccccc4)nc(N)n3)c2)ccn1` [Example 122, N4*-[3-({2-[2-(methoxymethyl)pyrrolidin-1-yl]pyridin-4-yl}oxy)phenyl]-6-phenylpyrimidine-2,4-diamine] was tested. Which IC50 did it give?
Answer: > 2000 nM

Question: For `COCCN(CCOC)c1cc(Oc2cccc(Nc3cc(-c4ccccc4)nc(N)n3)c2)ccn1` [Example 126, N4*-[3-({2-[bis(2-methoxyethyl)amino]pyridin-4-yl}oxy)phenyl]-6-phenylpyrimidine-2,4-diamine], which IC50 is on record?
Answer: > 2000 nM

Question: Which IC50 does the source give for `COC[C@H]1CCCN1c1cc(Oc2cccc(Nc3cc(-c4ccccc4)nc(N)n3)c2)ccn1` [Example 147, N4*-[3-({2-[(2R)-2-(methoxymethyl)pyrrolidin-1-yl]pyridin-4-yl}oxy)phenyl]-6-phenylpyrimidine-2,4-diamine] here?
Answer: > 2000 nM

Same assay, conditions: Homo sapiens, HCT-116, 72 h compound exposure, less than or equal to 500 nM

Question: With `Nc1ccc(-c2cc(Nc3ccc(Oc4ccnc(Cl)c4)cc3)nc(N)n2)cc1` [Example 116, 6-(4-aminophenyl)-N4*- {4-[(2-chloropyridin-4-yl)oxy]phenyl}pyrimidine-2,4-diamine] as the molecule, how does the IC50 read?
Answer: ≤ 500 nM

Question: For `Nc1nc(Nc2ccc(Oc3ccnc(Cl)c3)c(F)c2)cc(-c2ccccc2)n1` [Example 117, N4*-{4-[(2-chloropyridin-4-yl)oxy]-3-fluorophenyl}-6-phenylpyrimidine-2,4-diamine], which IC50 is on record?
Answer: ≤ 500 nM

Question: For `Nc1cccc(-c2cc(Nc3ccc(Oc4ccnc(Cl)c4)cc3)nc(N)n2)c1` [Example 118, 6-(3-aminophenyl)-N4*-{4-[(2-chloropyridin-4-yl)oxy]phenyl}pyrimidine-2,4-diamine], which IC50 is on record?
Answer: ≤ 500 nM

Question: `Nc1nc(Nc2cccc(Oc3ccnc(N4CCCCC4)c3)c2)cc(-c2ccccc2)n1` [Example 119, 6-phenyl-N4*-{3-[(2-piperidin-1-ylpyridin-4-yl)oxy]phenyl}pyrimidine-2,4-diamine] was tested. Which IC50 did it give?
Answer: ≤ 500 nM

Question: For `Nc1nc(Nc2cccc(Oc3ccnc(N4CCOCC4)c3)c2)cc(-c2ccccc2)n1` [Example 120, N4*-{3-[(2-morpholin-4-ylpyridin-4-yl)oxy]phenyl}-6-phenylpyrimidine-2,4-diamine], which IC50 is on record?
Answer: ≤ 500 nM

Question: `Nc1nc(Nc2cccc(Oc3ccnc(N4CCCC4)c3)c2)cc(-c2ccccc2)n1` [Example 121, 6-phenyl-N4*-{3-[(2-pyrrolidin-1-ylpyridin-4-yl)oxy]phenyl}pyrimidine-2,4-diamine] was tested. Which IC50 did it give?
Answer: ≤ 500 nM

Question: With `Nc1nc(Nc2cccc(Oc3ccnc(N4CCC[C@@H]4CO)c3)c2)cc(-c2ccccc2)n1` [Example 123, [(2R)-1-(4-{3-[(2-amino-6-phenylpyrimidin-4-yl)amino]phenoxy}pyridin-2-yl)pyrrolidin-2-yl]methanol] as the molecule, how does the IC50 read?
Answer: ≤ 500 nM

Question: For `COCCN(C)c1cc(Oc2cccc(Nc3cc(-c4ccccc4)nc(N)n3)c2)ccn1` [Example 124, N4*-[3-({2-[(2-methoxyethyl)(methyl)amino]pyridin-4-yl}oxy)phenyl]-6-phenylpyrimidine-2,4-diamine], which IC50 is on record?
Answer: ≤ 500 nM

Question: For `CC1CCCN1c1cc(Oc2cccc(Nc3cc(-c4ccccc4)nc(N)n3)c2)ccn1` (stereo not drawn) [Example 125, N4*-(3-{[2-(2-methylpyrrolidin-1-yl)pyridin-4-yl]oxy}phenyl)-6-phenylpyrimidine-2,4-diamine], which IC50 is on record?
Answer: ≤ 500 nM

Question: How did the IC50 turn out when `Nc1nc(Nc2cccc(Oc3ccnc(N(CCO)CCO)c3)c2)cc(-c2ccccc2)n1` [Example 127, 2,2′-[(4-{3-[(2-amino-6-phenylpyrimidin-4-yl)amino]phenoxy}pyridin-2-yl)imino]diethanol] was run?
Answer: ≤ 500 nM

Question: With `Nc1nc(Nc2ccc(Oc3ccnc(N(CCO)CCO)c3)cc2)cc(-c2ccccc2)n1` [Example 129, 2,2′-[(4-{4-[(2-amino-6-phenylpyrimidin-4-yl)amino]phenoxy}pyridin-2-yl)imino]diethanol] as the molecule, how does the IC50 read?
Answer: ≤ 500 nM

Question: With `COC[C@H]1CCCN1c1cc(Oc2ccc(Nc3cc(-c4ccccc4)nc(N)n3)cc2)ccn1` [Example 133, N4*-[4-({2-[(2R)-2-(methoxymethyl)pyrrolidin-1-yl]pyridin-4-yl}oxy)phenyl]-6-phenylpyrimidine-2,4-diamine] as the molecule, how does the IC50 read?
Answer: ≤ 500 nM

Question: How did the IC50 turn out when `Nc1nc(Nc2ccc(Oc3ccnc(N4CCOCC4)c3)cc2)cc(-c2ccccc2)n1` [Example 134, N4*-{4-[(2-morpholin-4-ylpyridin-4-yl)oxy]phenyl}-6-phenylpyrimidine-2,4-diamine] was run?
Answer: ≤ 500 nM

Question: `COCCN(C)c1cc(Oc2ccc(Nc3cc(-c4ccccc4)nc(N)n3)cc2)ccn1` [Example 137, N4*-[4-({2-[(2-methoxyethyl)(methyl)amino]pyridin-4-yl}oxy)phenyl]-6-phenylpyrimidine-2,4-diamine] was tested. Which IC50 did it give?
Answer: ≤ 500 nM

Question: With `Nc1nc(Nc2ccc(Oc3ccnc(N4CCCCC4)c3)cc2)cc(-c2ccccc2)n1` [Example 139, 6-phenyl-N4*-{4-[(2-piperidin-1-ylpyridin-4-yl)oxy]phenyl}pyrimidine-2,4-diamine] as the molecule, how does the IC50 read?
Answer: ≤ 500 nM

Question: For `COCCN(CCOC)c1cc(Oc2ccc(Nc3cc(-c4ccccc4)nc(N)n3)cc2)ccn1` [Example 140, N4*-[4-({2-[bis(2-methoxyethyl)amino]pyridin-4-yl}oxy)phenyl]-6-phenylpyrimidine-2,4-diamine], which IC50 is on record?
Answer: ≤ 500 nM

Question: With `Nc1nc(Nc2ccc(Oc3ccnc(NCCCN4CCOCC4)c3)cc2)cc(-c2ccccc2)n1` [Example 142, N4*-[4-({2-[(3-morpholin-4-ylpropyl)amino]pyridin-4-yl}oxy)phenyl]-6-phenylpyrimidine-2,4-diamine] as the molecule, how does the IC50 read?
Answer: ≤ 500 nM

Question: `COc1cc(-c2cc(Nc3ccc(Oc4ccnc(N5CCOCC5)c4)cc3)nc(N)n2)ccc1O` [Example 143, 4-[2-amino-6-({4-[(2-morpholin-4-ylpyridin-4-yl)oxy]phenyl}amino)pyrimidin-4-yl]-2-methoxyphenol] was tested. Which IC50 did it give?
Answer: ≤ 500 nM

Question: For `Nc1nc(Nc2ccc(Oc3ccnc(N4CCC[C@H]4CO)c3)cc2)cc(-c2ccccc2)n1` [Example 145, [(2S)-1-(4-{4-[(2-amino-6-phenylpyrimidin-4-yl)amino]phenoxy}pyridin-2-yl)pyrrolidin-2-yl]methanol], which IC50 is on record?
Answer: ≤ 500 nM

Question: For `Nc1nc(Nc2ccc(Oc3ccnc(N4CC[C@@H](O)C4)c3)cc2)cc(-c2ccccc2)n1` [Example 146, (3R)-1-(4-{4-[(2-amino-6-phenylpyrimidin-4-yl)amino]phenoxy}pyridin-2-yl)pyrrolidin-3-ol], which IC50 is on record?
Answer: ≤ 500 nM

Question: `COc1cc(-c2cc(Nc3ccc(Oc4ccnc(C(F)(F)F)c4)cc3)nc(N)n2)ccc1OC(=O)CNC(=O)OC(C)(C)C` [Example 149, 4-{2-amino-6-[(4-{[2-(trifluoromethyl)pyridin-4-yl]oxy}phenyl)amino]pyrimidin-4-yl}-2-methoxyphenyl N-(tert-butoxycarbonyl)glycinate] was tested. Which IC50 did it give?
Answer: ≤ 500 nM

Question: For `COc1cc(-c2cc(Nc3ccc(Oc4ccnc(C(F)(F)F)c4)cc3)nc(N)n2)ccc1OC(=O)CN` [Example 150, 4-{2-amino-6-[(4-{[2-(trifluoromethyl)pyridin-4-yl]oxy}phenyl)amino]pyrimidin-4-yl}-2-methoxyphenyl glycinate hydrochloride], which IC50 is on record?
Answer: ≤ 500 nM

Question: For `COc1cc(-c2cc(Nc3ccc(Oc4ccnc(C(F)(F)F)c4)cc3)nc(N)n2)ccc1N` [Example 153, 6-(4-amino-3-methoxyphenyl)-N4*-(4-{[2-(trifluoromethyl)pyridin-4-yl]oxy}phenyl) pyrimidine-2,4-diamine], which IC50 is on record?
Answer: ≤ 500 nM

Question: For `Cc1ccccc1-c1cc(Nc2ccc(Oc3ccnc(CN)c3)cc2)nc(N)n1` [Example 154, N4*-(4-{[2-(aminomethyl)pyridin-4-yl]oxy}phenyl)-6-(2-methylphenyl) pyrimidine-2,4-diamine], which IC50 is on record?
Answer: ≤ 500 nM
